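Grown in 96-well plates, cells were treated for 48 hours with each compound at five concentrations. Insufficient inhibition: endpoint recorded as highest concentration tested. At the GI50, growth is halved. Definition used: TGI = concentration required for complete inhibition of growth.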
How the values were obtained:
Assay in all cases: growth of human tumour cells (NCI), 48 h
NCI-H23 lung = system: NCI-H23 lung
A498 renal = system: A498 renal
SF-295 CNS = system: SF-295 CNS
SF-268 CNS = system: SF-268 CNS
PC-3 prostate = system: PC-3 prostate
CAKI-1 renal = system: CAKI-1 renal
K-562 leukemia = system: K-562 leukemia
HOP-62 NSCLC = system: HOP-62 NSCLC
BT-549 breast = system: BT-549 breast
CCRF-CEM leukemia = system: CCRF-CEM leukemia
OVCAR-5 ovarian = system: OVCAR-5 ovarian
HCT-15 colon = system: HCT-15 colon
HCT-116 colon = system: HCT-116 colon
MALME-3M melanoma = system: MALME-3M melanoma
SF-539 CNS = system: SF-539 CNS
IGROV1 ovarian = system: IGROV1 ovarian
HL-60(TB) leukemia = system: HL-60(TB) leukemia
LOX IMVI melanoma = system: LOX IMVI melanoma
SNB-75 CNS = system: SNB-75 CNS
OVCAR-3 ovarian = system: OVCAR-3 ovarian
MDA-MB-231 breast = system: MDA-MB-231 breast
COLO 205 colon = system: COLO 205 colon
NCI-H522 lung = system: NCI-H522 lung
SR leukemia = system: SR leukemia
MDA-MB-435 = system: MDA-MB-435
HS 578T breast = system: HS 578T breast
HCC-2998 colon = system: HCC-2998 colon
MOLT-4 leukemia = system: MOLT-4 leukemia
SK-MEL-2 melanoma = system: SK-MEL-2 melanoma

For `COc1cc2c(Oc3ccc4[nH]c(C)cc4c3F)ncnc2cc1OCCCN1CCCC1`, the GI50 (NCI-H23 lung) was 5.17 µM, the TGI (NCI-H23 lung) was 22.7 µM and the GI50 (A498 renal) was 0.129 µM. The TGI (A498 renal) was 0.72 µM, the GI50 (SF-295 CNS) was 2.81 µM and the TGI (SF-295 CNS) was 13.2 µM. The GI50 (SF-268 CNS) was 4.06 µM, the TGI (SF-268 CNS) was 16.6 µM and the GI50 (PC-3 prostate) was 4.63 µM. The TGI (PC-3 prostate) was 17.5 µM, the GI50 (CAKI-1 renal) was 2.79 µM and the TGI (CAKI-1 renal) was 13.9 µM. The GI50 (K-562 leukemia) was 2.15 µM, the TGI (K-562 leukemia) was 7.44 µM and the GI50 (HOP-62 NSCLC) was 2.03 µM. It also gave a TGI (HOP-62 NSCLC) of 10.5 µM, a GI50 (BT-549 breast) of 2.98 µM and a TGI (BT-549 breast) of 10.8 µM. The GI50 (CCRF-CEM leukemia) was 3.74 µM, the TGI (CCRF-CEM leukemia) was 16.8 µM and the GI50 (OVCAR-5 ovarian) was 4.72 µM. For the same molecule, the TGI (OVCAR-5 ovarian) was 19.5 µM, the GI50 (HCT-15 colon) was 3.16 µM and the TGI (HCT-15 colon) was 15.2 µM. It also gave a GI50 (HCT-116 colon) of 3.96 µM, a TGI (HCT-116 colon) of 14.7 µM and a GI50 (MALME-3M melanoma) of 2.48 µM. For the same molecule, the TGI (MALME-3M melanoma) was 7.02 µM, the GI50 (SF-539 CNS) was 0.46 µM and the TGI (SF-539 CNS) was 2.47 µM. For the same molecule, the GI50 (IGROV1 ovarian) was 1.45 µM, the TGI (IGROV1 ovarian) was 14.2 µM and the GI50 (HL-60(TB) leukemia) was 2.04 µM. The TGI (HL-60(TB) leukemia) was 4.37 µM, the GI50 (LOX IMVI melanoma) was 1.62 µM and the TGI (LOX IMVI melanoma) was 4.31 µM. It also gave a GI50 (SNB-75 CNS) of 0.959 µM, a TGI (SNB-75 CNS) of 5.09 µM and a GI50 (OVCAR-3 ovarian) of 2.25 µM. For the same molecule, the TGI (OVCAR-3 ovarian) was 7.56 µM, the GI50 (MDA-MB-231 breast) was 2.54 µM and the TGI (MDA-MB-231 breast) was 7.58 µM. The GI50 (COLO 205 colon) was 1.83 µM, the TGI (COLO 205 colon) was 3.58 µM and the GI50 (NCI-H522 lung) was 2.33 µM. For the same molecule, the TGI (NCI-H522 lung) was 5.99 µM, the GI50 (SR leukemia) was 3.06 µM and the TGI (SR leukemia) was 15 µM. For the same molecule, the GI50 (MDA-MB-435) was 2.75 µM, the TGI (MDA-MB-435) was 8.98 µM and the GI50 (HS 578T breast) was 1.32 µM. It also gave a TGI (HS 578T breast) of 6.89 µM, a GI50 (HCC-2998 colon) of 3.77 µM and a TGI (HCC-2998 colon) of 11.8 µM. For the same molecule, the GI50 (MOLT-4 leukemia) was 2.55 µM, the TGI (MOLT-4 leukemia) was 13.8 µM and the GI50 (SK-MEL-2 melanoma) was 3.84 µM. It also gave a TGI (SK-MEL-2 melanoma) of 10.3 µM.
